From the supplement of paper PMC10307832

Experiments:
Assay in all cases: relative viability (nuclei count vs DMSO), 5 days (fraction); higher = more cells survive
Salubrinal + Trametinib = compound: O=C(/C=C/c1ccccc1)NC(NC(=S)Nc1cccc2cccnc12)C(Cl)(Cl)Cl [Salubrinal] + CC(=O)Nc1cccc(-n2c(=O)n(C3CC3)c(=O)c3c(Nc4ccc(I)cc4F)n(C)c(=O)c(C)c32)c1 [Trametinib] (partner 0.02 µM)
Summary of the method: (§1)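 Lung cancer cell lines in 1536-well plates were dosed by pin tool the day after seeding, either with one drug alone or with a fixed anchor-drug dose plus five library-drug doses (not always all listed) in √10 steps. After 5 days, cells were fixed and their nuclei stained in one step (final 0.05% Triton X-100, 1% formaldehyde, 1 ug/ml Hoechst), then counted on 4× images. Relative viability is the nuclei count in treated wells divided by that in vehicle wells. Values are medians of duplicate plates.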

[1] = compound: Cc1ccc2nc(NCCN)c3ncc(C)n3c2c1 + O=C(c1cc(Cc2n[nH]c(=O)c3ccccc23)ccc1F)N1CCN(C(=O)C2CC2)CC1 [Olaparib] (partner 8 µM)
Summary of the method: as §1

Salubrinal + OSI-027 = compound: O=C(/C=C/c1ccccc1)NC(NC(=S)Nc1cccc2cccnc12)C(Cl)(Cl)Cl [Salubrinal] + COc1cccc2cc(-c3nc([C@H]4CC[C@H](C(=O)O)CC4)n4ncnc(N)c34)[nH]c12 [OSI-027] (partner 0.5 µM)
Summary of the method: as §1

Salubrinal + Crizotinib = compound: O=C(/C=C/c1ccccc1)NC(NC(=S)Nc1cccc2cccnc12)C(Cl)(Cl)Cl [Salubrinal] + C[C@@H](Oc1cc(-c2cnn(C3CCNCC3)c2)cnc1N)c1c(Cl)ccc(F)c1Cl [Crizotinib] (partner 1 µM)
Summary of the method: as §1

Row | Cell Line | relative viability (Salubrinal + Trametinib; first compound 0.08 µM) | relative viability (Salubrinal + Trametinib; first compound 0.253 µM) | relative viability (Salubrinal + Trametinib; first compound 0.8 µM) | relative viability (Salubrinal + Trametinib; first compound 2.53 µM) | relative viability (Salubrinal + Trametinib; first compound 8 µM) | relative viability ([1]; first compound 0.04 µM) | relative viability ([1]; first compound 0.1265 µM) | relative viability ([1]; first compound 0.4 µM) | relative viability ([1]; first compound 1.265 µM) | relative viability ([1]; first compound 4 µM) | relative viability (Salubrinal + OSI-027; first compound 0.08 µM) | relative viability (Salubrinal + OSI-027; first compound 0.253 µM) | relative viability (Salubrinal + OSI-027; first compound 0.8 µM) | relative viability (Salubrinal + OSI-027; first compound 2.53 µM) | relative viability (Salubrinal + OSI-027; first compound 8 µM) | relative viability (Salubrinal + Crizotinib; first compound 0.08 µM) | relative viability (Salubrinal + Crizotinib; first compound 0.253 µM) | relative viability (Salubrinal + Crizotinib; first compound 0.8 µM) | relative viability (Salubrinal + Crizotinib; first compound 2.53 µM) | relative viability (Salubrinal + Crizotinib; first compound 8 µM)
1 | LU99A | 0.589 | 0.515 | 0.614 | 0.548 | 0.56 | 0.322 | 0.319 | 0.288 | 0.29 | 0.258 | 0.241 | 0.29 | 0.306 | 0.294 | 0.265 | 0.588 | 0.635 | 0.657 | 0.528 | 0.5
2 | LXF-289 | 0.747 | 0.59 | 0.7 | 0.702 | 0.681 | 1.16 | 1.02 | 1.03 | 1.13 | 1.1 | 0.784 | 0.647 | 0.953 | 0.847 | 0.69 | 0.869 | 0.73 | 0.818 | 0.757 | 0.8
3 | NCI-H23 | 0.437 | 0.423 | 0.479 | 0.334 | 0.375 | 0.37 | 0.324 | 0.319 | 0.276 | 0.242 | 0.59 | 0.573 | 0.647 | 0.539 | 0.606 | 0.559 | 0.391 | 0.621 | 0.461 | 0.354
4 | NCI-H322M | 0.542 | 0.517 | 0.487 | 0.565 | 0.521 | 0.698 | 0.816 | 0.881 | 0.796 | 0.638 | 0.471 | 0.536 | 0.565 | 0.57 | 0.471 | 0.898 | 0.901 | 1.08 | 0.872 | 0.944
5 | NCI-H358 | 0.145 | 0.139 | 0.135 | 0.143 | 0.136 | 0.646 | 0.644 | 0.603 | 0.607 | 0.517 | 0.83 | 0.74 | 0.848 | 0.582 | 0.672 | 0.559 | 0.553 | 0.506 | 0.51 | 0.478
6 | NCI-H441 | 0.48 | 0.415 | 0.48 | 0.507 | 0.462 | 0.631 | 0.384 | 0.622 | 0.646 | 0.549 | 0.603 | 0.59 | 0.678 | 0.573 | 0.506 | 0.689 | 0.665 | 0.73 | 0.766 | 0.652
7 | NCI-H460 | 0.114 | 0.24 | 0.125 | 0.121 | 0.126 | 0.481 | 0.421 | 0.443 | 0.342 | 0.273 | 1.21 | 0.406 | 1.03 | 0.514 | 0.317 | 1.18 | 0.891 | 0.843 | 0.909 | 0.541
8 | NCI-H520 | 0.853 | 0.676 | 0.843 | 0.633 | 0.685 | 0.308 | 0.368 | 0.323 | 0.304 | 0.266 | 0.334 | 0.22 | 0.265 | 0.307 | 0.337 | 0.816 | 0.489 | 0.771 | 0.663 | 0.681
9 | NCI-H596 | 0.851 | 0.745 | 0.747 | 0.817 | 0.675 | 0.77 | 0.857 | 0.771 | 0.637 | 0.715 | 0.657 | 0.721 | 0.793 | 0.716 | 0.646 | 1.07 | 0.901 | 1.07 | 1.02 | 1.05
10 | NCI-H647 | 0.619 | 0.431 | 0.524 | 0.502 | 0.433 | 0.602 | 0.492 | 0.517 | 0.642 | 0.268 | 0.76 | 0.671 | 0.6 | 0.638 | 0.604 | 1.44 | 0.891 | 1 | 1.12 | 0.905
11 | NCI-H650 | 1.1 | 0.94 | 1.08 | 1 | 0.976 | 0.374 | 0.364 | 0.39 | 0.393 | 0.399 | 0.584 | 0.554 | 0.576 | 0.629 | 0.452 | 0.701 | 0.656 | 0.792 | 0.637 | 0.765
12 | NCI-H661 | 0.781 | 0.523 | 0.574 | 0.577 | 0.546 | 0.78 | 0.815 | 0.701 | 0.661 | 0.631 | 0.781 | 0.58 | 0.77 | 0.705 | 0.603 | 0.934 | – | 1.1 | 1.01 | 1.17
13 | NCI-H727 | 0.375 | 0.375 | 0.383 | 0.372 | 0.403 | 0.561 | – | 0.731 | 0.785 | 0.709 | 0.505 | 0.621 | 0.562 | 0.618 | 0.575 | 0.943 | 0.559 | 1.03 | 0.999 | 0.84
14 | NCI-H838 | 0.657 | 0.678 | 0.534 | 0.518 | 0.552 | 0.791 | 0.717 | 0.709 | 0.759 | 0.696 | 0.327 | 0.402 | 0.372 | 0.4 | 0.407 | 1.08 | 0.719 | 0.854 | 0.951 | 0.82
15 | NCI-H1355 | 0.445 | 0.452 | 0.414 | 0.433 | 0.315 | 0.79 | 0.72 | 0.754 | 0.764 | 0.659 | 0.409 | 0.341 | 0.505 | 0.4 | 0.398 | 1.18 | 1.12 | 1.12 | 1.12 | 1.03
16 | NCI-H1437 | 0.563 | 0.601 | 0.52 | 0.545 | 0.494 | 0.641 | 0.613 | 0.616 | 0.643 | 0.553 | 0.9 | 0.811 | 0.924 | 0.912 | 0.851 | 0.975 | 0.77 | 1.02 | 0.909 | 0.758
17 | NCI-H1650 | 0.691 | 0.5 | 0.592 | 0.517 | 0.54 | 0.647 | 0.804 | 0.715 | 0.821 | 0.549 | 0.929 | 0.525 | 0.718 | 0.583 | 0.607 | 1.06 | 0.859 | 1.02 | 0.882 | 0.942
18 | NCI-H1651 | 0.848 | 0.833 | 0.898 | 0.829 | 0.929 | 0.178 | 0.181 | 0.179 | 0.18 | 0.175 | 0.954 | 0.599 | 0.794 | 0.827 | 0.563 | 0.923 | 0.864 | 0.925 | 0.858 | 0.9
19 | NCI-H1666 | 0.802 | 0.869 | 0.847 | 0.903 | 0.783 | 0.719 | 0.755 | 0.751 | 0.76 | 0.749 | 0.953 | 0.763 | 0.894 | 0.806 | 0.848 | 1.17 | 0.852 | 1.14 | 0.784 | 0.94
20 | NCI-H1734 | 0.704 | 0.742 | 0.787 | 0.656 | 0.597 | 0.666 | 0.617 | 0.658 | 0.321 | 0.553 | 0.724 | 0.572 | 0.633 | 0.542 | 0.636 | 0.694 | 0.774 | 0.842 | 0.674 | 0.772
21 | NCI-H1755 | 0.847 | 0.803 | 0.829 | 0.765 | 0.716 | 0.859 | 0.878 | 0.835 | 0.903 | 0.791 | 0.748 | 0.803 | 0.795 | 0.696 | 0.633 | 0.991 | 0.738 | 1 | 0.874 | 0.917
22 | NCI-H1792 | 0.533 | – | 0.524 | 0.374 | 0.631 | 0.499 | 0.279 | – | 0.458 | 0.295 | 0.97 | – | 0.626 | 0.75 | 0.684 | 1.14 | – | 1.33 | 0.929 | 0.859
23 | NCI-H1915 | 0.219 | – | 0.583 | 0.314 | 0.311 | 0.286 | 0.251 | 0.242 | 0.279 | 0.255 | 0.628 | 0.609 | 0.716 | 0.682 | 0.637 | 0.994 | 0.643 | 1.03 | 0.875 | 0.836
24 | NCI-H1944 | 0.451 | 0.448 | 0.403 | 0.399 | 0.374 | 0.388 | 0.387 | 0.403 | 0.397 | 0.388 | 0.384 | 0.389 | 0.483 | 0.387 | 0.406 | 1.22 | 1.12 | 1.29 | 1.08 | 1.21
25 | NCI-H1975 | 0.281 | 0.309 | 0.36 | 0.376 | 0.312 | 0.791 | 0.81 | 0.809 | 0.704 | 0.682 | 0.959 | 0.567 | 0.891 | 0.703 | 0.405 | 1.07 | 0.722 | 1.06 | 0.992 | 0.816
26 | NCI-H1993 | 0.506 | 0.614 | 0.503 | – | 0.616 | 1.12 | 0.962 | 0.86 | 0.624 | 1.06 | 0.58 | 0.564 | 0.509 | 0.495 | 0.584 | 0.795 | 0.856 | 0.794 | 0.909 | 0.941
27 | NCI-H2009 | 0.345 | 0.262 | 0.271 | 0.287 | 0.222 | 0.666 | 0.661 | 0.666 | 0.71 | 0.549 | 0.63 | 0.613 | 0.659 | 0.6 | 0.498 | 1.02 | 0.972 | 0.955 | 0.983 | 0.976
